Literature values, collected in patent US20080044496A1, “ARTHRITIS PHYTO-NUTRACEUTICAL SYNERGISTIC COMPOSITION” (priority 2006, published 2008).

Test system: human rheumatoid arthritis synoviocytes

C[C@@H]1CC[C@@]2(OC1)O[C@H]1C[C@H]3[C@@H]4CC=C5C[C@@H](O)CC[C@]5(C)[C@H]4CC[C@]3(C)[C@H]1[C@@H]2C [diosgenine]
apoptosis: induces apoptosis
